Experiments:
Hepatitis B virus [1] = test: Antiviral activity against Hepatitis B virus in HBeAg-positive chronic hepatitis B patient assessed as HBV DNA level in serum at 0.5 mg/day after 12 weeks (reference value: 9.72 log10copies/ml); type: functional
Homo sapiens [2] = species on record: Homo sapiens; test: Hepatotoxicity in HBeAg-positive chronic hepatitis B patient assessed as reduction in alanine aminotransferase level at 600 mg/day after 12 weeks (reference value: 163.1 IU/liter); type: toxicity, organism-based; details: in vivo, 2016 h
Hepatitis B virus [3] = test: Antiviral activity against Hepatitis B virus in HBeAg-positive chronic hepatitis B patient assessed as mean viral clearance rate at 600 mg/day; type: functional
Hepatitis B virus [4] = test: Antiviral activity against Hepatitis B virus in HBeAg-positive chronic hepatitis B patient assessed as mean rate of infected cell loss at 600 mg/day; type: functional
Hepatitis B virus [5] = test: Antiviral activity against Hepatitis B virus in HBeAg-positive chronic hepatitis B patient assessed as mean efficiency factor of blocking virus production at 600 mg/day; type: functional
Homo sapiens [6] = species on record: Homo sapiens; test: Toxicity in HBeAg-positive chronic hepatitis B patient assessed as increase in ALT level at 600 mg/day; type: organism-based; details: in vivo
Homo sapiens [7] = species on record: Homo sapiens; test: Toxicity in HBeAg-positive chronic hepatitis B patient assessed as upper respiratory tract infection at 600 mg/day; type: organism-based; details: in vivo
Homo sapiens [8] = species on record: Homo sapiens; test: Toxicity in HBeAg-positive chronic hepatitis B patient assessed as chest discomfort at 600 mg/day; type: organism-based; details: in vivo
Homo sapiens [9] = species on record: Homo sapiens; test: Toxicity in HBeAg-positive chronic hepatitis B patient assessed as abdominal discomfort at 600 mg/day; type: organism-based, Abdomen; details: in vivo
Homo sapiens [10] = species on record: Homo sapiens; test: Toxicity in HBeAg-positive chronic hepatitis B patient assessed as upper abdominal pain at 600 mg/day; type: organism-based, Abdomen; details: in vivo
Homo sapiens [11] = species on record: Homo sapiens; test: Toxicity in HBeAg-positive chronic hepatitis B patient assessed as increase in AST level at 600 mg/day; type: organism-based; details: in vivo
Homo sapiens [12] = species on record: Homo sapiens; test: Toxicity in HBeAg-positive chronic hepatitis B patient assessed as conjunctival hypermia at 600 mg/day; type: organism-based, Conjunctiva; details: in vivo
Homo sapiens [13] = species on record: Homo sapiens; test: Toxicity in HBeAg-positive chronic hepatitis B patient assessed as dyspnea at 600 mg/day; type: organism-based; details: in vivo
Homo sapiens [14] = species on record: Homo sapiens; test: Toxicity in HBeAg-positive chronic hepatitis B patient assessed as gingival bleeding at 600 mg/day; type: organism-based; details: in vivo
Homo sapiens [15] = species on record: Homo sapiens; test: Toxicity in HBeAg-positive chronic hepatitis B patient assessed as hyperphosphatemia at 600 mg/day; type: organism-based; details: in vivo
Homo sapiens [16] = species on record: Homo sapiens; test: Toxicity in HBeAg-positive chronic hepatitis B patient assessed as myalgia at 600 mg/day; type: organism-based; details: in vivo
Homo sapiens [17] = species on record: Homo sapiens; test: Toxicity in HBeAg-positive chronic hepatitis B patient assessed as neutropenia at 600 mg/day; type: organism-based; details: in vivo
Homo sapiens [18] = species on record: Homo sapiens; test: Toxicity in HBeAg-positive chronic hepatitis B patient assessed as thrombocytopenia at 600 mg/day; type: organism-based; details: in vivo
Homo sapiens [19] = species on record: Homo sapiens; test: Toxicity in HBeAg-positive chronic hepatitis B patient assessed as increase in blood CK level at 600 mg/day; type: organism-based; details: in vivo
Homo sapiens [20] = species on record: Homo sapiens; test: Toxicity in HBeAg-positive chronic hepatitis B patient assessed as nausea at 600 mg/day; type: organism-based; details: in vivo
Homo sapiens [21] = test: Toxicity in HBeAg-positive chronic hepatitis B patient assessed as facial edema at 600 mg/day; type: organism-based; details: in vivo
Homo sapiens [22] = species on record: Homo sapiens; test: Toxicity in HBeAg-positive chronic hepatitis B patient assessed as headache at 600 mg/day; type: organism-based; details: in vivo
Homo sapiens [23] = species on record: Homo sapiens; test: Toxicity in HBeAg-positive chronic hepatitis B patient assessed as hordeolum at 600 mg/day; type: organism-based; details: in vivo
Homo sapiens [24] = species on record: Homo sapiens; test: Toxicity in HBeAg-positive chronic hepatitis B patient assessed as insomnia at 600 mg/day; type: organism-based; details: in vivo
Homo sapiens [25] = species on record: Homo sapiens; test: Toxicity in HBeAg-positive chronic hepatitis B patient assessed as myringitis at 600 mg/day; type: organism-based; details: in vivo
Homo sapiens [26] = species on record: Homo sapiens; test: Toxicity in HBeAg-positive chronic hepatitis B patient assessed as nasophayngitis at 600 mg/day; type: organism-based; details: in vivo
Homo sapiens [27] = species on record: Homo sapiens; test: Toxicity in HBeAg-positive chronic hepatitis B patient assessed as proteinuria at 600 mg/day; type: organism-based; details: in vivo
Homo sapiens [28] = species on record: Homo sapiens; test: Toxicity in HBeAg-positive chronic hepatitis B patient assessed as vaginal hemorrhage at 600 mg/day; type: organism-based; details: in vivo
Homo sapiens [29] = species on record: Homo sapiens; test: Toxicity in HBeAg-positive chronic hepatitis B patient assessed as vomiting at 600 mg/day; type: organism-based; details: in vivo
Homo sapiens [30] = species on record: Homo sapiens; test: Toxicity in HBeAg-positive chronic hepatitis B patient assessed as peripheral neuropathy at 600 mg/day; type: organism-based; details: in vivo
Homo sapiens [31] = species on record: Homo sapiens; test: Toxicity in HBeAg-positive chronic hepatitis B patient assessed as muscular weakness at 600 mg/day; type: organism-based; details: in vivo

**Q.** What does the source list for `Cc1cn([C@@H]2C[C@@H](O)[C@H](CO)O2)c(=O)[nH]c1=O` [TELBIVUDINE]?
**A.** Activity (Hepatitis B virus [1]): 6.6; Activity (Homo sapiens [2]): 108 IU/L; Activity (Hepatitis B virus [3]): 0.809 day⁻¹; Activity (Hepatitis B virus [4]): 0.075 day⁻¹; Activity (Hepatitis B virus [5]): 99.1%; Activity (Homo sapiens [6]): 3%; Activity (Homo sapiens [7]): 1%; Activity (Homo sapiens [8]): 1%; Activity (Homo sapiens [9]): 1%; Activity (Homo sapiens [10]): 1%; Activity (Homo sapiens [11]): 1%; Activity (Homo sapiens [12]): 1%; Activity (Homo sapiens [13]): 1%; Activity (Homo sapiens [14]): 1%; Activity (Homo sapiens [15]): 1%; Activity (Homo sapiens [16]): 1%; Activity (Homo sapiens [17]): 1%; Activity (Homo sapiens [18]): 1%; Activity (Homo sapiens [19]): 0%; Activity (Homo sapiens [20]): 0%; Activity (Homo sapiens [21]): 0%; Activity (Homo sapiens [22]): 0%; Activity (Homo sapiens [23]): 0%; Activity (Homo sapiens [24]): 0%; Activity (Homo sapiens [25]): 0%; Activity (Homo sapiens [26]): 0%; Activity (Homo sapiens [27]): 0%; Activity (Homo sapiens [28]): 0%; Activity (Homo sapiens [29]): 0%; Activity (Homo sapiens [30]): Non-toxic; Activity (Homo sapiens [31]): Non-toxic

From ChEMBL document CHEMBL1255386, “Early viral kinetics of telbivudine and entecavir: results of a 12-week randomized exploratory study with patients with HBeAg-positive chronic hepatitis B” (Antimicrob Agents Chemother, 2010)
